Experimental data reported in patent publication US10537650B2, “Molecular probes for multimodality imaging and tracking of stem cells” (University of Massachusetts, priority 2012, dated 2020).
“And” between values parts separate entries of the source, which are not always exact repeats. Equal values may be shown once.

Legend:
TC1 wild type mES cells = experiment: Culture and fluorescence microscopy of MTTI-157 labeled TC1 mES cells; type: cell-based, mouse; conditions: through Day 4, 2 μM and 10 μM dye
Description: The MTTI-157 labeled mES cells were seeded into 12-well plates with about 0.5×10^6 cells per well to grow under normal culture conditions to evaluate cell viability, differentiation, fluorescence dye stability, and dye partitioning to daughter cells over time. Unlabeled normal TC1 wild type mES cells were used as control. The cell associated fluorescence was detected from the plates on an Olympus IX 70 Inverted Light Microscope (Olympus America, Inc., NY) using a Cy5 filter on Days 0, 1 and 4 after seeding.
After dye labeling, the trypan blue staining was performed to detect cell viability. […] The fluorescence is shown in red and paired with the phase-contrast image on its right. […] It is obvious from Rows 2 and 3 that the MTTI-157 incorporated into the mES cells. […] By the next day (Day 1), the cells begin to merge forming clones, as expected, and the fluorescence is seen distributed within the clones with passage to other members of the cell cluster, i.e., the daughter cells. On Day 4, the cell clusters are now larger and more cells within the cluster appear to carry the fluorescence signal.

LS174T cells [1] = experiment: Flow cytometry of LS174T cells labeled with MTTI-157: labeling efficiency under different conditions; type: cell-based, human; conditions: for labeling efficiency: Set 1, dye dissolved in ethanol
Description: The method for LS174T cells labeling with MTTI-157 was as described as before. Briefly, LS174T cells were trypsinized, collected, and washed twice with MEM without serum and then resuspended in Diluent C. Immediately, prior to staining; a 2× working dye stock solution in Diluent C was prepared. The cell suspension was added rapidly to an equal volume of the 2× working dye solution and immediately mixed by pipetting up. […] Subsequently, the cell suspension was spun at 400 g for 5 min. […] After labeling, the labeled cells were fixed in 2% paraformaldehyde and analyzed by flow cytometry.
MTTI-157 was dissolved in ethanol at the concentration of 2 μg/μL.
MTTI-157 was dissolved in DMSO at the concentration of 2 μg/μL.

LS174T cells [2] = experiment: Optimization of dye concentrations: flow cytometry of LS174T cells labeled with six DiD dyes; type: cell-based, human
Description: (§1) The human colon cancer cell line LS174T was used here as a model to identify the optimal dyes marker with minimal transfer to neighbor cells for cell tracking. A family of DiD dyes (Ex: 648 nm, Em: 667 nm) with variable lipophilic aliphatic tails (Cm/Cn here refer to lengths lipophilic aliphatic tails in the number of C atoms) were investigated: MT279 (C22/C3), MT280 (C22/C12), MT284 (C14/C3), MT285 (C14/C14), CN1012 (C20/C20), MTTI-157 without the DOTA (C22/C22). LS174T cells were cultured in minimal essential medium (MEM) with nonessential amino acids, 10% fetal bovine serum (FBS) and 1% penicillin/streptomycin at 37° C. in a humidified atmosphere with 5% CO2 and were passaged weekly.
Four working dye stock solutions were investigated. LS174T cells were trypsinized, collected, and washed twice with MEM without serum when the flask was 90% confluent. […] Immediately, prior to staining, 2× working dye stock solutions (1 μM, 4 μM, 10 μM or 20 μM) in Diluent C were prepared. Then 500 μl of cell suspension was added rapidly into 500 μl of 2× working dye and immediately mixed by pipetting. […] The labeled cells were fixed in 2% paraformaldehyde and analyzed by flow cytometry.

Wild type mES cells BL/6 = experiment: Flow cytometry of BL/6 mES cells labeled with MTTI-157 (percent labeled cells); type: cell-based, mouse
From the text: Unlabeled BL/6 cells were used as a control.

LS174T cells [3] = experiment: Dye transfer: co-culture of dye labeled and unlabeled LS174T cells, flow cytometry; type: cell-based, human
Description: as §1
LS174T cells were trypsinized, collected, and washed twice with MEM without serum and labeled with the six dyes according to the method described above. […] Study sets are described below. One (1) ml of the cell suspension was added rapidly to 1 ml of 2× working dye solution and immediately mixed by pipetting. […] Subsequently, the cells suspension was spun at 400 g for 10 min. […] The cell viability was determined by trypan blue staining. The dye labeled cells were co-cultured with an equal number of unlabeled cells under normal culture conditions. Samples were removed at 0 h, 24 h and 48 h after initiation of co-culture and fixed in 2% paraformaldehyde for flow cytometry analysis.

## CCCCCCCCCCCCCCCCCCCCCCN1C(=CC=CC=CC2=[N+](CCCCCCCCCCCCCCCCCCCCCC)c3ccc(CNC(=O)CN4CCN(CC(=O)O)CCN(CC(=O)O)CCN(CC(=O)O)CC4)cc3C2(C)C)C(C)(C)c2ccccc21.[I-] [MTTI-157]
TC1 wild type mES cells
  effects on cellular differentiation: no obvious effects on cellular differentiation
LS174T cells [1]; final dye concentration 10 μM
  labeling efficiency: about 60%
LS174T cells [1]; highest final dye concentration of 20 μM
  labeling efficiency: about 70%
LS174T cells [1]; dye dissolved in DMSO, final dye 10 μM, final cells 10 ×10^7/ml, DMSO in 2x working dye stock 2%
  % labeled cells in total cells by FACS: 97.3%
LS174T cells [1]; dye dissolved in DMSO, final dye 20 μM, final cells 10 ×10^7/ml, DMSO in 2x working dye stock 4%
  % labeled cells in total cells by FACS: 97.9%
LS174T cells [1]; dye dissolved in DMSO, final dye 20 μM, final cells 20 ×10^7/ml, DMSO in 2x working dye stock 4%
  % labeled cells in total cells by FACS: 98.6%
LS174T cells [1]; dye dissolved in DMSO, final dye 40 μM, final cells 10 ×10^7/ml, DMSO in 2x working dye stock 8%
  % labeled cells in total cells by FACS: 99.2%
LS174T cells [1]; dye dissolved in DMSO, final dye 40 μM, final cells 20 ×10^7/ml, DMSO in 2x working dye stock 8%
  % labeled cells in total cells by FACS: 98.5%
LS174T cells [1]; dye dissolved in DMSO, final dye 80 μM, final cells 10 ×10^7/ml, DMSO in 2x working dye stock 16%
  % labeled cells in total cells by FACS: 99.5%
LS174T cells [1]; dye dissolved in ethanol, final dye 2 μM, final cells 1 ×10^7/ml, DMSO in 2x working dye stock 0%
  % labeled cells in total cells by FACS: 12.6%
LS174T cells [1]; dye dissolved in ethanol, final dye 2 μM, final cells 1 ×10^7/ml, DMSO in 2x working dye stock 2%
  % labeled cells in total cells by FACS: 23.7%
LS174T cells [1]; dye dissolved in ethanol, final dye 2 μM, final cells 10 ×10^7/ml, DMSO in 2x working dye stock 0%
  % labeled cells in total cells by FACS: 29.5%
LS174T cells [1]; dye dissolved in ethanol, final dye 10 μM, final cells 1 ×10^7/ml, DMSO in 2x working dye stock 0%
  % labeled cells in total cells by FACS: 62.7%
LS174T cells [1]; dye dissolved in ethanol, final dye 10 μM, final cells 1 ×10^7/ml, DMSO in 2x working dye stock 2%
  % labeled cells in total cells by FACS: 55.9%
LS174T cells [1]; dye dissolved in ethanol, final dye 10 μM, final cells 10 ×10^7/ml, DMSO in 2x working dye stock 0%
  % labeled cells in total cells by FACS: 57.9%
LS174T cells [1]; dye dissolved in ethanol, final dye 20 μM, final cells 1 ×10^7/ml, DMSO in 2x working dye stock 0%
  % labeled cells in total cells by FACS: 74.3%
LS174T cells [1]; dye dissolved in ethanol, final dye 20 μM, final cells 1 ×10^7/ml, DMSO in 2x working dye stock 2%
  % labeled cells in total cells by FACS: 71.1%
LS174T cells [1]; dye dissolved in ethanol, final dye 20 μM, final cells 10 ×10^7/ml, DMSO in 2x working dye stock 0%
  % labeled cells in total cells by FACS: 75.0%
LS174T cells [2]; dye concentration 0.5 μM
  percent of cells labeled: 71.5%
LS174T cells [2]; dye concentration 2 μM
  percent of cells labeled: 92.3%
LS174T cells [2]; dye concentration 5 μM
  percent of cells labeled: 98.6%
LS174T cells [2]; dye concentration 10 μM
  percent of cells labeled: 99.4%
Wild type mES cells BL/6; 2 μM dye
  percent of labeled cells in total cells: 9.8%
Wild type mES cells BL/6; 10 μM dye
  percent of labeled cells in total cells: 28.7%
Wild type mES cells BL/6; 20 μM dye
  percent of labeled cells in total cells: 34%
LS174T cells [3]; Set 1, 2 μM dye, 24 h of co-culture
  Percent of unlabeled cells incorporating dye from labeled cells compared to the value at 0 h: 22.39%
LS174T cells [3]; Set 1, 2 μM dye, 48 h of co-culture
  Percent of unlabeled cells incorporating dye from labeled cells compared to the value at 0 h: 22.74%
LS174T cells [3]; Set 2, 10 μM dye, 24 h
  Percent of unlabeled cells incorporating dye from labeled cells compared to the value at 0 h: 22% and 22.17%
LS174T cells [3]; Set 2, 10 μM dye, 48 h
  Percent of unlabeled cells incorporating dye from labeled cells compared to the value at 0 h: 28% and 28.45%
LS174T cells [3]; Set 3, 5 μM dye, 24 h
  Percent of unlabeled cells incorporating dye from labeled cells compared to the value at 0 h: 6.93%
LS174T cells [3]; Set 3, 5 μM dye, 48 h
  Percent of unlabeled cells incorporating dye from labeled cells compared to the value at 0 h: 22.16%
LS174T cells [3]; Set 4, 0.5 μM dye
  dye transfer to unlabeled cells (in words): dye transfer took place
LS174T cells [3]; Set 4, 0.5 μM dye, 24 h
  Percent of unlabeled cells incorporating dye from labeled cells compared to that at 0 h: 13.58%
LS174T cells [3]; Set 4, 0.5 μM dye, 48 h
  Percent of unlabeled cells incorporating dye from labeled cells compared to that at 0 h: 14.675%
LS174T cells [3]; Set 4, 2 μM dye, 24 h
  Percent of unlabeled cells incorporating dye from labeled cells compared to that at 0 h: 23.555%
LS174T cells [3]; Set 4, 2 μM dye, 48 h
  Percent of unlabeled cells incorporating dye from labeled cells compared to that at 0 h: 25.615%
